This passage reports EC50 results from patent USRE49735E1 (BRISTOL-MYERS SQUIBB COMPANY, priority 2010, dated 2023).

Values joined by “and” are separate entries in the source; they are usually repeats but may differ in a detail not shown here. Identical values can stand only once.

Chain of human mGluR5A (P41594 21-1180 isoform P41594-2): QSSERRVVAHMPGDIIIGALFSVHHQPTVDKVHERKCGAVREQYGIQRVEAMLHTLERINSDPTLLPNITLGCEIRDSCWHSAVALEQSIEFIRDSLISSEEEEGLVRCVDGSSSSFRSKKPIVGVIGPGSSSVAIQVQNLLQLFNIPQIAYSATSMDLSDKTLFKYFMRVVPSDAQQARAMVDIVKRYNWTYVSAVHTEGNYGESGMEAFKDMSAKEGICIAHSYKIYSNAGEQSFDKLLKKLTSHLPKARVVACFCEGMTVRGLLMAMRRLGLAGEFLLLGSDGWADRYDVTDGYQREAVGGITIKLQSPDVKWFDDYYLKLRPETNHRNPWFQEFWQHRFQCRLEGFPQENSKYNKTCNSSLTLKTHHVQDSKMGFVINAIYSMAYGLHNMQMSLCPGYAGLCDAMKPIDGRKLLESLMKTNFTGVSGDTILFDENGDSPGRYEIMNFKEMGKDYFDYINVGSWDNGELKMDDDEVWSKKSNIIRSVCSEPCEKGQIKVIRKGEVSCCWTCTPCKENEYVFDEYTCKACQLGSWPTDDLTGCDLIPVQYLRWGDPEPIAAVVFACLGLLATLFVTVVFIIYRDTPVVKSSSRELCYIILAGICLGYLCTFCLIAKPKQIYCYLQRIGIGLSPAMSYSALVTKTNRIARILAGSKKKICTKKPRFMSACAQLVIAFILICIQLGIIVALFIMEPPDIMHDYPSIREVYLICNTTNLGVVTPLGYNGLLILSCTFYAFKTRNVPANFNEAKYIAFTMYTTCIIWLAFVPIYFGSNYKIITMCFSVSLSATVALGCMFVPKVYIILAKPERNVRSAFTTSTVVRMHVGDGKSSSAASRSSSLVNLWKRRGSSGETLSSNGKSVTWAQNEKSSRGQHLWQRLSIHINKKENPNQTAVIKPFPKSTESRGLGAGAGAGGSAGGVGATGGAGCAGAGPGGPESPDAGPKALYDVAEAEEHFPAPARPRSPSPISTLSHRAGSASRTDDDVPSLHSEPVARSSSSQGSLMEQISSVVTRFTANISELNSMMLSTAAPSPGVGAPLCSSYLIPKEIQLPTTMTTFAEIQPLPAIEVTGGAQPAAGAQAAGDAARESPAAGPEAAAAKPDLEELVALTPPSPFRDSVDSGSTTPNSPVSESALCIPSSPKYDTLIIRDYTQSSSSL

This assay has as its target human mGluR5A (Homo sapiens, UniProt P41594). Briefly: mGluR5 FLIPR Assay. It is filed as cell-based. The note with it: positive modulator activity; HEK293 (ZF) cells with human mGluR5A and rat GLAST; Ca++ response to ~EC10 glutamate. The method, then: HEK293 (ZF) cells stably transfected with human mGluR5A (pIRES neo) and the rat glutamate-aspartate transporter (GLAST; pIRES puro) are grown in a monolayer culture at 37° C. in 5% CO2 and fed with Minimum Essential Medium (MEM) supplemented with 10% dialysed fetal bovine serum. 24 hours prior to assay, cells are enzymatically dissociated from the culture flask (Trypsin, 0.25%), spun down (1000 rpm, 3 min), resuspended, and plated on Greiner black clear bottomed PDL-coated 384-well plates at a density of 30 thousand cells/well. […] Plates are incubated in dye at 37° C. in 5% CO2 for 60 minutes prior to delivery of test compounds in assay buffer. Test compounds are incubated with cells in the presence of dye for 10 minutes prior to being read on the FLIPR platform (Molecular Devices). A Ca^++ signal is induced in the assay plates via the delivery of an ˜EC10 concentration of the endogenous agonist 1-glutamate; images are acquired at 1 Hz for 100 seconds post-delivery of agonist stimulus. Positive modulator activity (i.e. the ability of test compounds to increase the Ca^++ response to a sub-maximal concentration of agonist) is normalized to a saturating concentration of a known mGluR5 PAM run in each assay plate. An EC50 concentration of test compounds is derived from 4-parameter logistic curve fits of transformed fluoresence data via proprietary software suite.
In general, EC50 refers to the midpoint of the concentration-response curve. Higher therefore signals weaker potency. `Cc1cccc([C@@H]2OC(=O)N[C@@H]2c2cccc(C#Cc3ccccc3)c2)c1` (racemic) [Example 98, cis-4-(3-(phenylethynyl)phenyl)-5-m-tolyloxazolidin-2-one] showed a concentration for a half-maximal effect (EC50) above 1 µM. In the case of `Cc1cccc([C@@H]2OC(=O)N[C@H]2c2cccc(C#Cc3ccccc3)c2)c1` (racemic) [Example 99, trans-4-(3-(phenylethynyl)phenyl)-5-m-tolyloxazolidin-2-one] it was below 0.1 µM. In the case of `Cc1ccc([C@@H]2OC(=O)N[C@H]2c2cccc(C#Cc3ccccc3)c2)cc1C` (racemic) [Example 100, Trans-5-(3,4-dimethylphenyl)-4-(3-(phenylethynyl)phenyl)oxazolidin-2-one] it was 0.1 to 1 µM; in that of `O=C1N[C@@H](c2cccc(C#Cc3ccccc3)c2)[C@H](c2cccs2)O1` (racemic) [Example 103, trans-4-(3-(phenylethynyl)phenyl)-5-(thiophen-2-yl)oxazolidin-2-one], below 0.1 µM; in that of `Cc1ccc([C@@H]2OC(=O)N[C@H]2c2cccc(C#Cc3ccccc3)c2)cc1` (racemic) [Example 106, (±)-(phenylethynyl)phenyl)-5-p-tolyloxazolidin-2-one], below 0.1 µM. `O=C1N[C@H](c2cccc(C#Cc3ccccc3)c2)[C@@H](c2cccc(F)c2)O1` (racemic) [Example 111, Trans-5-(3-fluorophenyl)-4-(3-(phenylethynyl)phenyl)oxazolidin-2-one] had a concentration giving a half-maximal response (EC50) below 0.1 µM. Consider `O=C1N[C@H](c2ccnc(C#Cc3ccccc3)n2)[C@@H](c2cc(F)ccc2F)O1` (racemic) [Example 270], for which the EC50 is above 1 µM. In the case of `O=C1N[C@H](c2cc(C#Cc3ccccc3)ncn2)[C@@H](c2cccc(F)c2)O1` (racemic) [Example 271] it was above 1 µM. In the case of `O=C1N[C@H](c2nccc(C#Cc3ccccc3)n2)[C@@H](c2cccc(F)c2)O1` (racemic) [Example 272], the EC50 is above 1 µM. In the case of `O=C1N[C@H](c2cncc(C#Cc3ccccc3)c2)[C@H](c2ncco2)O1` (racemic) [Example 337, (±)-(4R,5R)-5-(Oxazol-2-yl)-4-(5-(phenylethynyl)pyridin-3-yl)oxazolidin-2-one] it was 0.1 to 1 µM and 0.688 µM. The value for `C[C@]1(c2cncc(C#Cc3ccccc3)c2)NC(=O)O[C@H]1c1cc(F)ccc1F` (racemic) [Example 405, (+/−)-5-(2,5-Difluorophenyl)-4-methyl-4-(5-(phenylethynyl)pyridin-3-yl)oxazolidin-2-one] was below 0.1 µM; that for `O=C1N[C@@H](c2cccc(C#Cc3ccccc3)c2)[C@H](c2cccnc2)O1` (relative stereo) [Example 116, Trans-4-(3-(phenylethynyl)phenyl)-5-(pyridin-3-yl)oxazolidin-2-one] was below 0.1 µM; that for `COc1cccc([C@@H]2OC(=O)N[C@@H]2c2cccc(C#Cc3ccccc3)c2)c1` (single isomer, unassigned) [Example 3] was 0.1 to 1 µM and 0.283 µM. As for `COc1cccc([C@H]2OC(=O)N[C@H]2c2cccc(C#Cc3ccccc3)c2)c1` (single isomer, unassigned) [Example 4], the half-maximal effective concentration (EC50) was above 30 µM. The value for `COc1cccc([C@H]2OC(=O)N[C@@H]2c2cccc(C#Cc3ccccc3)n2)c1` (single isomer, unassigned) [Example 5] was below 0.1 µM; that for `COc1cccc([C@@H]2OC(=O)N[C@H]2c2cccc(C#Cc3ccccc3)n2)c1` (single isomer, unassigned) [Example 6] was above 1 µM. In the case of `O=C1N[C@H](c2cccc(C#Cc3ccccc3)n2)[C@@H](c2ccccc2)O1` (single isomer, unassigned) [Example 10] it was below 0.1 µM.

Molecule `O=C1N[C@@H](c2cccc(C#Cc3ccccc3)n2)[C@H](c2ccccc2)O1` (single isomer, unassigned) [Example 11] gave an EC50 above 1 µM. In the case of `O=C1N[C@@H](c2cccc(C#Cc3cccc(F)c3)n2)[C@H](c2ccccc2)O1` (single isomer, unassigned) [Example 13] it was above 1 µM; in that of `O=C1N[C@H](c2cccc(C#Cc3ccccc3F)n2)[C@@H](c2ccccc2)O1` (single isomer, unassigned) [Example 14], above 1 µM. In the case of `O=C1N[C@@H](c2cccc(C#Cc3ccccc3F)n2)[C@H](c2ccccc2)O1` (single isomer, unassigned) [Example 15] it was above 1 µM; in that of `O=C1N[C@H](c2cccc(C#Cc3ccc(F)cc3)n2)[C@@H](c2ccccc2)O1` (single isomer, unassigned) [Example 16], below 0.1 µM; in that of `O=C1N[C@@H](c2cccc(C#Cc3ccc(F)cc3)n2)[C@H](c2ccccc2)O1` (single isomer, unassigned) [Example 17], above 1 µM. Take `O=C1N[C@H](c2cc(C#Cc3ccccc3)ccn2)[C@@H](c2ccccc2)O1` (single isomer, unassigned) [Example 18]: the concentration for a half-maximal effect (EC50) was above 30 µM. Molecule `O=C1N[C@@H](c2cc(C#Cc3ccccc3)ccn2)[C@H](c2ccccc2)O1` (single isomer, unassigned) [Example 19] registered an EC50 above 1 µM. For `O=C1N[C@H](c2cccc(C#Cc3ccccn3)n2)[C@@H](c2ccccc2)O1` (single isomer, unassigned) [Example 24], the concentration for a half-maximal effect (EC50) is above 1 µM.

As for `O=C1N[C@@H](c2cccc(C#Cc3ccccn3)n2)[C@H](c2ccccc2)O1` (single isomer, unassigned) [Example 25], the concentration for a half-maximal effect (EC50) was above 1 µM. In the case of `O=C1N[C@H](c2cccc(C#Cc3cccnc3)n2)[C@@H](c2ccccc2)O1` (single isomer, unassigned) [Example 26] it was 0.1 to 1 µM and 0.367 µM; in that of `O=C1N[C@@H](c2cccc(C#Cc3cccnc3)n2)[C@H](c2ccccc2)O1` (single isomer, unassigned) [Example 27], above 1 µM; in that of `COc1cccc([C@@H]2OC(=O)N[C@H]2c2cncc(C#Cc3ccccn3)c2)c1` (single isomer, unassigned) [Example 28], above 1 µM. The value for `COc1cccc([C@H]2OC(=O)N[C@@H]2c2cncc(C#Cc3ccccn3)c2)c1` (single isomer, unassigned) [Example 29] was above 1 µM; that for `COc1cccc([C@@H]2OC(=O)N[C@H]2c2cncc(C#Cc3csc(C)n3)c2)c1` (single isomer, unassigned) [Example 30] was above 1 µM.

Take `COc1cccc([C@H]2OC(=O)N[C@@H]2c2cncc(C#Cc3csc(C)n3)c2)c1` (single isomer, unassigned) [Example 31]: the half-maximal effective concentration (EC50) was above 1 µM. The molecule `COc1cccc([C@@H]2OC(=O)N[C@H]2c2cncc(C#Cc3ccccc3)c2)c1` (single isomer, unassigned) [Example 32] gave an EC50 above 1 µM.

`COc1cccc([C@H]2OC(=O)N[C@@H]2c2cncc(C#Cc3ccccc3)c2)c1` (single isomer, unassigned) [Example 33] yielded a half-maximal effective concentration (EC50) below 0.1 µM. In the case of `COc1cccc([C@H]2OC(=O)N[C@@H]2c2ccnc(C#Cc3ccccc3)c2)c1` (single isomer, unassigned) [Example 36] it was above 1 µM; in that of `COc1cccc([C@@H]2OC(=O)N[C@H]2c2ccnc(C#Cc3ccccc3)c2)c1` (single isomer, unassigned) [Example 37], below 0.1 µM; in that of `O=C1N[C@H](c2cncc(C#Cc3ccccc3)c2)[C@@H](c2ccccc2)O1` (single isomer, unassigned) [Example 38], above 1 µM.
